{"source": "paper PMC12346692", "about": "“SUL-150 Limits Vascular Remodeling and Ventricular Failure in Pulmonary Arterial Hypertension” (International Journal of Molecular Sciences, 2025)", "format_in_all_cases": "in vivo, rat", "key": {"[1]": {"assay": "SUL-150 levels in plasma, lung and right ventricle (LC-MS/MS)", "details": "for concentration at 4 weeks / concentration at 28 days: rat", "protocol": "(§1) The administration of vehicle and SUL-150 started 7 days post-monocrotaline injection and was performed by the i.p. implantation of osmotic minipumps (Alzet model #2004, Durect Corp., Cupertino, CA, USA) at the time of aortocaval shunt placement. The Lynch coil method was used to circumvent compatibility issues with the osmotic minipump reservoir as described previously. Vehicle (dimethyl sulfoxide (DMSO) or SUL-150 ((R)-(6-hydroxy-2,5,7,8-tetramethylchroman-2-yl)(piperazin-1-yl)methanone, 0.9 M in DMSO, Sulfateq BV, Groningen, The Netherlands) was administered at a flow rate of 0.25 µL·h^−1, accumulating to an approximate dose of 6 mg·kg^−1·day^−1 SUL-150 in a 300 g rat. Animals were weighed, watched for dyspnea, cyanosis, and oedema, and sacrificed preterm when a 15% weight loss or debilitating dyspnea occurred.\nMeasurement of SUL-150 levels in plasma and tissue homogenates was performed by liquid chromatography and mass spectrometry. Plasma or tissue homogenates were supplemented with acetonitrile and sonicated, followed by centrifugation at 14,000× g to liberate SUL-150 from the samples and pellet protein precipitates. Tissue samples were subjected to additional solid-phase extraction using an SPEStrata C-18 cartridge (100 mg, 55 µm, 70 Å, Phenomenex, Torrance, CA, USA), prepared with 1 mL methanol followed by 1 mL water. Analytes were washed by methanol (10%) and eluted in acetonitrile/methanol (3:7 v/v). Eluate was concentrated, and water (20%) was added. Analyte recovery was >95% for plasma samples and >70% for tissue. Liquid chromatography of the samples was performed on a 1260 Infinity HPLC device (Agilent Tech., Santa Clara, CA, USA) using a ZORBAX Eclipse AAA column (3.0 × 150 mm, particle size 3.5 µm) in a reversed-phase setup and a flow rate of 0.5 mL·min^−1 with gradient elution. Solvents consisted of methanol (6%)/acetonitrile (4%) acetate and methanol (54%)/acetonitrile (36%) in water with 0.1% ammonium for solvents A and B, respectively. MS/MS detection was performed on a QQQ 6460 mass spectrometer (Agilent Tech., Santa Clara, CA, USA). Detection was set for a quantifier ion (205.1, CE 25 V) and qualifier ion (190.1, CE 40 V). Gas temperature for MS was set to 300 °C and gas flow was set to 6 L·min^−1. Quantification of the samples was performed using an external standard for calibration. LOD and LOQ were 5 pg·mL^−1 and 17 pg·mL^−1, respectively."}, "PAH rats [2]": {"test_system": "PAH rats", "assay": "In-life data (body weight, discomfort, mortality) during chronic SUL-150 administration", "details": "~6 mg·kg^−1·day^−1 i.p. minipump, 28 days", "protocol": "as §1\nThree rats died during the study without a clear cause at necropsy and were excluded (sham control (n = 1) and vehicle-treated (n = 2) rats). At sacrifice, 7 rats were excluded from the study because of procedural motives: in two rats (vehicle (n = 1) and SUL-150-treated (n = 1) rats), adequate AC shunt could not be confirmed. In two other rats (both SUL-150-treated rats), the osmotic pumps were blocked by adipose deposits, limiting their function. Three rats died during cardiac function assessment (sham control (n = 2) and SUL-150 treated (n = 1) rats). Twenty rats were included in the study (sham control (n = 7), vehicle-treated (n = 7), and SUL-150-treated (n = 6) rats."}, "PAH rats [3]": {"test_system": "PAH rats", "assay": "Histochemistry: pulmonary artery and vessel remodeling, cardiomyocyte hypertrophy, cardiac fibrosis", "details": "~6 mg·kg^−1·day^−1 i.p. minipump, 28 days", "protocol": "Cross-sectional cardiomyocyte area was determined for approximately 400 cardiomyocytes/sample (range 182–768) using Fiji 2.1.0/1.53c in binary mode with the following particle analyzer settings: circularity 0.25–1.00 and pixel area 300–1000 px^2.\nCardiac fibrosis was measured after picrosirius staining and counterstaining with Weigert’s hematoxylin (both Sigma-Aldrich, St. Louis, MO, USA) following the manufacturer’s instructions. Samples were imaged on a NanoZoomer digital slide scanner (Hammamatsu Photonics, Shizuoka, Japan) at 40× magnification. Interstitial fibrosis (i.e., non-perivascular fibrosis) was quantified using Aperio ImageScope (Leica Biosystems, Nussloch, Germany). Morphology of the intra-acinar pulmonary vessels was assessed after Verhoeff-Von Gieson staining (Sigma-Aldrich, St. Louis, MO, USA). Samples were imaged on a Leica DM2000 microscope at 63× magnification using Leica Image Acquisition software version 4.13 (Leica, Wetzlar, Germany). Pulmonary vessel remodeling was quantified as described previously."}, "[4]": {"details": "individual PAH rats at sacrifice, ~6 mg·kg^−1·day^−1 i.p. minipump"}, "[5]": {"details": "plasma, ip, 6 mg·kg^−1·day^−1, mean of PAH rats at sacrifice, ~6 mg·kg^−1·day^−1 i.p. minipump, read-out: mean concentration of SUL-150 in blood plasma"}}, "note": "Where “and” joins values, the source holds several entries; their conditions need not be identical. Equal entries are not always repeated. Where two headings read alike, the source gives them in different places. Marks after values point to notes of the source that are not given here.", "data": [{"smiles": "Cc1c(C)c2c(c(C)c1O)CC[C@](C)(C(=O)N1CCNCC1)O2", "note": "[SUL-150, (R)-(6-hydroxy-2,5,7,8-tetramethylchroman-2-yl)(piperazin-1-yl)methanone]", "values": [{"measurement": "SUL-150 concentration, Lung Tissue", "setting": "[1]; [4]", "result": "35.56 pg/mg and 10.21 pg/mg and 14.26 pg/mg and 25.74 pg/mg and 26.09 pg/mg and 53.94 pg/mg"}, {"measurement": "SUL-150 concentration, Plasma", "setting": "[1]; [4]", "result": "93.16 ng/mL and 3.31 ng/mL and 18.36 ng/mL and 4.42 ng/mL and 18.81 ng/mL and 43.90 ng/mL"}, {"measurement": "SUL-150 concentration, Right Ventricle", "setting": "[1]; [4]", "result": "13.49 pg/mg and 29.91 pg/mg and 23.67 pg/mg and 16.80 pg/mg and 21.76 pg/mg and 143.68 pg/mg"}, {"measurement": "concentration at 4 weeks", "setting": "[1]; lung, ip, 6 mg·kg^−1·day^−1, mean of PAH rats at sacrifice, ~6 mg·kg^−1·day^−1 i.p. minipump, read-out: mean concentration of SUL-150 in lung", "result": "27.6 ± 15.8", "unit": "ng/g"}, {"measurement": "concentration at 28 days", "setting": "[1]; plasma, intraperitoneal, 6 mg·kg^−1·day^−1, range over PAH rats at sacrifice, read-out: plasma level of SUL-150, range", "result": "3.3 to 93.2", "unit": "ng/mL"}, {"measurement": "concentration at 4 weeks", "setting": "[1]; [5]", "result": "30.3 ± 34.1", "unit": "ng/mL"}, {"measurement": "concentration at 28 days", "setting": "[1]; [5]", "result": 30.3, "unit": "ng/mL"}, {"measurement": "concentration at 4 weeks", "setting": "[1]; right ventricle, ip, 6 mg·kg^−1·day^−1, mean of PAH rats at sacrifice, ~6 mg·kg^−1·day^−1 i.p. minipump, read-out: mean concentration of SUL-150 in right ventricle", "result": "41.5 ± 50.4", "unit": "ng/g"}, {"measurement": "Dyspnea frequency", "setting": "PAH rats [2]", "result": "33.3 % of rats"}, {"measurement": "Edema frequency", "setting": "PAH rats [2]", "result": "0 % of rats and 0 ^a,b % of rats"}, {"measurement": "End weight (day 32–33)", "setting": "PAH rats [2]", "result": "319.3 ± 12.0 ^a g"}, {"measurement": "Mortality (%)", "setting": "PAH rats [2]", "result": "0 (0%) ^a,b"}, {"measurement": "number of rats with dyspnea", "setting": "PAH rats [2]", "result": 2, "unit": "n"}, {"measurement": "survival rate", "setting": "PAH rats [2]", "result": 100, "unit": "%"}, {"measurement": "cardiomyocyte cross-sectional area (right ventricle)", "setting": "PAH rats [3]", "result": "246.1 ± 39.4", "unit": "µm^2"}, {"measurement": "cross-sectional vascular area", "setting": "PAH rats [3]", "result": "888.2 ± 146.7", "unit": "µm^2"}, {"measurement": "interstitial fibrosis in the cardiac tissue", "setting": "PAH rats [3]", "result": "9.3 % of tissue area"}, {"measurement": "intra-acinar pulmonary vessels, cross-sectional lumen area", "setting": "PAH rats [3]", "result": "365.7 ± 101.1", "unit": "µm^2"}, {"measurement": "intra-acinar vessel occlusion score", "setting": "PAH rats [3]", "result": "39.0 ± 7.4", "unit": "%"}, {"measurement": "pulmonary artery wall thickness", "setting": "PAH rats [3]", "result": "57.6 ± 13.0", "unit": "µm"}, {"measurement": "wall–lumen ratio", "setting": "PAH rats [3]", "result": "0.42 ± 0.12", "unit": "µmwall·µmlumen^−1"}, {"measurement": "percentage of non-perfusable vessels", "setting": "PAH rats [3]; vessels with a luminal area < 40 µm^2", "result": "4.45 ± 2.62", "unit": "%"}]}]}
